{
  "source": "patent US6268395A",
  "about": "“Phorbol derivatives having antivirus activity” (Lead Chemical Co., Ltd., priority 1999, dated 2001)",
  "key": {"HIV-1": {"system": "HIV-1", "experiment": "Inhibition of HIV-1-induced cytopathic effect (CPE) in MT-4 cells", "format": "cell-based, HIV-1 (LAV-1) in human MT-4 cells", "conditions": "for CPE inhibitory effect (in words): HIV-1; for anti-HIV-1 activity: at concentrations up to 500 μg/mL; for IC100: Human immunodeficiency virus 1, MT4, 120 h, read-out: Anti-HIV-1 IC100 (complete prevention of HIV-1-induced CPE); for r = CC0/IC100: 7200 min", "experimental": "(§1) In the experiments, MT-4 cells were used. The cells were incubated at 37° C. under 5% CO2 in RPMI-1640 medium (FCS, Flow laboratories, North Ryde, Australia) supplemented with 100 μg/mL of streptomycin (Meiji Seika, Tokyo, Japan), and 100 U/mL of penicillin G (Banyu Pharmaceutical, Tokyo, Japan).\nHIV-1 was obtained from culture supernatant of MOLT-4 cells that had been persistently infected with LAV-1.\nj) Assay of cytopathic effect(CPE) of HIV-1 in MT-4 cells\n(§2) The inhibitory effect of test compounds on HIV-1-induced cytopathogenicity was measured by the method of Harada, Koyanagi & Yamamoto (1985). MT-4 cells were infected for 1 hour with HIV-1 (at TCID50 of 0.001/well) and non-adsorbed virus was removed by washing. Then, the cells were resuspended in RPMI-1640 medium at a concentration of 1.5×10^5 cells/mL. A 200 μL/well of the cell suspension was cultured for 5 days in days in a 96-well culture plate containing various concentrations (12 doses, maximum 1,000 μg/mL and minimum […]) of the test compounds. Control assays were performed in the absence of test compounds with HIV-1-infected and uninfected cultures. On day 5, the IC100 of the test compound required for completely preventing HIV-1-induced CPE(IC) was determined through an optical microscope and the cell growth was examined to give the CC0 that reduces the viability of MT-4 cells.\nA variety of phorbol esters and related compounds were tested for their ability to inhibit the replication and infectivity of HIV-1 in MT-4 cells, a human CD4-positive cell line continually infected with HTLV-1, and the results are presented in Table 3."}, "[1]": {"experiment": "Cell growth / viability of MT-4 cells (cytotoxicity)", "format": "cell-based", "conditions": "human, day 5, read-out: CC0 (concentration that reduces viability of MT-4 cells; minimum cytotoxic concentration)", "experimental": "as §1, §2"}, "protein kinase C (PKC)": {"system": "protein kinase C (PKC)", "format": "biochemical, mouse", "conditions": "for % Activity of PKC: relative to TPA positive control", "experimental": "After addition of 0.55 nM [γ-^32 P] ATP (50×10^3 cpm/nmol), the reaction mixture was mixed and allowed to be kept at 37° C. for 30 minutes. Then the reactions were terminated by the addition of 10 μl of ice-cold stop reagent. Aliquots of 35 μL were transferred to the center of peptide binding discs. After 10 minutes, the discs were washed two times with 75 mM orthophosphoric acid. The activity of ^32 P-labeled samples was counted in 10/mL of a scintillation fluid for 1 minute. […] Blank (in the absence of PKC) and control (in the absence of TPA or tested samples) were also carried out. One unit of PKC was defined as that amount of enzyme, which incorporated 1 nmol of phosphate from ATP into its substrate, peptide, per minute under the assay conditions, described above."}, "[2]": {"conditions": "MT-4 cells, 5 days, NE: Not effective"}, "[3]": {"conditions": "10 ng/mL (standard concentration)"}},
  "note": "Entries after “also recorded” stand apart in the source; their conditions may differ. Where two headings read alike, the source gives them in different places.",
  "data": [
    {"smiles": "CCCC(=O)OCC1=C[C@H]2[C@@H]3C(C)(C)[C@]3(OC(=O)CCC)[C@H](OC(=O)CCC)[C@@H](C)[C@]2(O)[C@@H]2C=C(C)C(=O)[C@]2(O)C1", "note": "[Compound 22, 4α-Phorbol-12,13,20-tributyrate]", "values": [
      {"measurement": "CPE inhibitory effect (in words)", "setting": "HIV-1; MT-4 cells", "result": "showed no effect"},
      {"measurement": "anti-HIV-1 activity", "setting": "HIV-1", "result": "did not show anti-HIV-1 activity"},
      {"measurement": "MCC at 120 h", "setting": "[1]", "result": 62.5, "unit": "µg/mL"},
      {"measurement": "PKC activation (in words)", "setting": "protein kinase C (PKC); 10 ng to 2.7 μg/mL", "result": "no activation"},
      {"measurement": "% Activity of PKC", "setting": "protein kinase C (PKC); 10 ng/mL", "result": 0, "unit": "%"},
      {"measurement": "% Activity of PKC", "setting": "protein kinase C (PKC); 2.7 μg/mL", "result": 0, "unit": "%"}
    ]},
    {"smiles": "CC1=C[C@H]2[C@@]3(O)[C@H](C)[C@@H](O)[C@]4(O)[C@H]([C@@H]3C=C(CO)C[C@@]2(O)C1=O)C4(C)C", "note": "[Compound 19, 4α-Phorbol]", "values": [
      {"measurement": "CPE inhibitory effect (in words)", "setting": "HIV-1; MT-4 cells", "result": "did not show CPE inhibitory effect; also recorded: showed no effect"},
      {"measurement": "anti-HIV-1 activity", "setting": "HIV-1", "result": "did not show anti-HIV-1 activity"},
      {"measurement": "MCC at 120 h", "setting": "[1]", "result": 500, "unit": "µg/mL"},
      {"measurement": "% Activity of PKC", "setting": "protein kinase C (PKC); 10 ng/mL", "result": 1, "unit": "%"},
      {"measurement": "% Activity of PKC", "setting": "protein kinase C (PKC); 2.7 μg/mL", "result": 5, "unit": "%"},
      {"measurement": "activation of PKC (in words)", "setting": "protein kinase C (PKC); concentration not given", "result": "weak activators of PKC"}
    ]},
    {"smiles": "C=C(C)C1C(OC(C)=O)=CC(C)C2(O)C1C=C(COC(=O)CCCCCCC/C=C\\C/C=C\\CCCCC)CC1(O)C(=O)C(C)=CC12", "note": "(centres unmarked) [Compound 18, 13-O-Acetylcrotophorbolone-enol-20-linoleate]", "values": [
      {"measurement": "IC100", "setting": "HIV-1; [2]", "result": 7.81, "unit": "µg/mL"},
      {"measurement": "Anti-HIV-1 IC100 (complete prevention of HIV-1-induced CPE)", "setting": "HIV-1; [2]", "result": 7.8, "unit": "µg/mL"},
      {"measurement": "r = CC0/IC100", "setting": "HIV-1; MT-4 cells", "result": 16.0},
      {"measurement": "enhancement of CPE inhibitory activity", "setting": "HIV-1; relative to compound 1", "result": 2, "unit": "times"},
      {"measurement": "MCC at 120 h", "setting": "[1]", "result": 125, "unit": "µg/mL"},
      {"measurement": "% Activity of PKC", "setting": "protein kinase C (PKC); 10 ng/mL", "result": 24, "unit": "%"},
      {"measurement": "% Activity of PKC", "setting": "protein kinase C (PKC); 2.7 μg/mL", "result": 24, "unit": "%"}
    ]},
    {"smiles": "CC(=O)OCC1=C[C@H]2[C@@H]3C(C)(C)[C@]3(OC(C)=O)[C@H](OC(C)=O)[C@@H](C)[C@]2(O)[C@@H]2C=C(C)C(=O)[C@]2(O)C1", "note": "[Compound 21, 4α-Phorbol-12,13,20-triacetate]", "values": [
      {"measurement": "IC100", "setting": "HIV-1; [2]", "result": 250, "unit": "µg/mL"},
      {"measurement": "r = CC0/IC100", "setting": "HIV-1; MT-4 cells", "result": 2.00},
      {"measurement": "MCC at 120 h", "setting": "[1]", "result": 500, "unit": "µg/mL"},
      {"measurement": "% Activity of PKC", "setting": "protein kinase C (PKC); 10 ng/mL", "result": 0, "unit": "%"},
      {"measurement": "% Activity of PKC", "setting": "protein kinase C (PKC); 2.7 μg/mL", "result": 39, "unit": "%"},
      {"measurement": "PKC activation (in words)", "setting": "protein kinase C (PKC); high concentrations", "result": "enhanced activation of PKC"}
    ]},
    {"smiles": "CC(=O)OCC1=C[C@H]2[C@@H]3C(C)(C)[C@]3(OC(C)=O)[C@H](OC(C)=O)[C@@H](C)[C@]2(O)[C@@H]2C=C(C)[C@H](O)[C@@]2(O)C1", "note": "[Compound 15, 3-Deoxo-3β-hydroxyphorbol-12,13,20-triacetate]", "values": [
      {"measurement": "IC100", "setting": "HIV-1", "result": 500, "unit": "µg/mL"},
      {"measurement": "CPE inhibitory effect (in words)", "setting": "HIV-1; MT-4 cells", "result": "loss of CPE inhibitory effect"},
      {"measurement": "r = CC0/IC100", "setting": "HIV-1; MT-4 cells", "result": 2.00},
      {"measurement": "MCC at 120 h", "setting": "[1]", "result": 1000, "unit": "µg/mL"},
      {"measurement": "% Activity of PKC", "setting": "protein kinase C (PKC); 10 ng/mL", "result": 0, "unit": "%"},
      {"measurement": "% Activity of PKC", "setting": "protein kinase C (PKC); 2.7 μg/mL", "result": 26, "unit": "%"}
    ]},
    {"smiles": "CCCCCCCCCCCC(=O)O[C@@]12[C@H](OC(=O)C(C)CC)[C@@H](C)[C@@]3(O)[C@@H](C=C(CO)C[C@]4(O)C(=O)C(C)=C[C@@H]34)[C@@H]1C2(C)C", "note": "(some centres unmarked) [Compound 7, 12-O-(2-Methylbutyroyl)phorbol-13-dodecanoate]", "values": [
      {"measurement": "IC100", "setting": "HIV-1; [2]", "result": 15.6, "unit": "µg/mL"},
      {"measurement": "r = CC0/IC100", "setting": "HIV-1; MT-4 cells", "result": 4.01},
      {"measurement": "MCC at 120 h", "setting": "[1]", "result": 62.5, "unit": "µg/mL"},
      {"measurement": "% Activity of PKC", "setting": "protein kinase C (PKC); 10 ng/mL", "result": 16, "unit": "%"},
      {"measurement": "% Activity of PKC", "setting": "protein kinase C (PKC); 2.7 μg/mL", "result": 30, "unit": "%"}
    ]},
    {"smiles": "CCCCC/C=C\\C/C=C\\CCCCCCCC(=O)OCC1=C[C@H]2[C@@H]3C(C)(C)[C@]3(OC(C)=O)[C@H](O)[C@@H](C)[C@]2(O)[C@@H]2C=C(C)C(=O)[C@@]2(O)C1", "note": "[Compound 1, 13-O-Acetylphorbol-20-(9Z,12Z-octadecadienoate)]", "values": [
      {"measurement": "IC100", "setting": "HIV-1; [2]", "result": 15.6, "unit": "µg/mL"},
      {"measurement": "r = CC0/IC100", "setting": "HIV-1; MT-4 cells", "result": 4.01},
      {"measurement": "MCC at 120 h", "setting": "[1]", "result": 62.5, "unit": "µg/mL"},
      {"measurement": "PKC activation (in words)", "setting": "protein kinase C (PKC); [3]", "result": "did not activate PKC"},
      {"measurement": "% Activity of PKC", "setting": "protein kinase C (PKC); 10 ng/mL", "result": 0, "unit": "%"}
    ]},
    {"smiles": "CC(=O)O[C@@]12[C@H](O)[C@@H](C)[C@@]3(O)[C@@H](C=C(CO)C[C@]4(O)C(=O)C(C)=C[C@@H]34)[C@@H]1C2(C)C", "note": "[Compound 10, 13-O-Acetylphorbol]", "values": [
      {"measurement": "IC100", "setting": "HIV-1; [2]", "result": 125, "unit": "µg/mL"},
      {"measurement": "r = CC0/IC100", "setting": "HIV-1; MT-4 cells", "result": "> 8.00"},
      {"measurement": "MCC at 120 h", "setting": "[1]", "result": "> 1000", "unit": "µg/mL"},
      {"measurement": "PKC activation (in words)", "setting": "protein kinase C (PKC); [3]", "result": "did not activate PKC"},
      {"measurement": "% Activity of PKC", "setting": "protein kinase C (PKC); 10 ng/mL", "result": 0, "unit": "%"},
      {"measurement": "% Activity of PKC", "setting": "protein kinase C (PKC); 2.7 μg/mL", "result": 14, "unit": "%"}
    ]}
  ]
}
